These results are taken from PubChem BioAssay AID328 (DTP/NCI, 2004).

The assay concerns BDF1 mice, P388 leukemia ip, median survival T/C. Kind of assay: NCI In Vivo Anticancer Drug Screen. Data for tumor model P388 Leukemia (intraperitoneal) in B6D2F1 (BDF1) mice. The conditions noted are these: endpoint: median survival time, higher = longer survival. Put shortly:
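Steps: implant the tumour, treat one group with compound and another with vehicle, record survival, then divide treated by control.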

Setting [1] is: dose: 100.0 mg/kg/injection, schedule: Q04DX003 (ip), vehicle: saline with Tween-80.
Setting [2] is: dose: 200.0 mg/kg/injection, schedule: Q04DX003 (ip), vehicle: saline with Tween-80.
[3] abbreviates: dose: 50.0 mg/kg/injection, schedule: Q01DX009 (ip), vehicle: saline with Tween-80.
[4] abbreviates: dose: 100.0 mg/kg/injection, schedule: Q01DX009 (ip), vehicle: saline with Tween-80.
Where [5] appears, read: dose: 200.0 mg/kg/injection, schedule: Q01DX009 (ip), vehicle: saline with Tween-80.
Setting [6] is: dose: 50.0 mg/kg/injection, schedule: Q04DX003 (ip), vehicle: saline with Tween-80.
[7] abbreviates: dose: 25.0 mg/kg/injection, schedule: Q01DX009 (ip), vehicle: Klucel (hydroxypropylcellulose) (HPC).
The mark [8] stands for this setting: dose: 50.0 mg/kg/injection, schedule: Q01DX009 (ip), vehicle: Klucel (hydroxypropylcellulose) (HPC).

Structures are written as SMILES. Values joined by “and” are separate entries in the source; they are usually repeats but may differ in a detail not shown here. Identical values can stand only once. Toxic doses and inconclusive results are not listed.

Consider `CCOc1cc(/C=N\Nc2nnc(C)n2N)c(C)cc1N(CCCl)CCCl`, for which the T/C by setting is: (dose: 5.5 mg/kg/injection, schedule: Q01DX009 (ip), vehicle: saline with Tween-80) 200 % of control; (dose: 8.3 mg/kg/injection, schedule: Q01DX009 (ip), vehicle: saline with Tween-80) 209 % of control; (dose: 12.5 mg/kg/injection, schedule: Q01DX009 (ip), vehicle: saline with Tween-80) 272 % of control; (dose: 18.7 mg/kg/injection, schedule: Q01DX009 (ip), vehicle: saline with Tween-80) 195 % of control; (dose: 40.0 mg/kg/injection, schedule: Q04DX003 (ip), vehicle: saline) 204 % of control; (dose: 50.0 mg/kg/injection, schedule: Q04DX003 (ip), vehicle: saline sonified) 168 % of control. Also, under “dose: 100.0 mg/kg/injection, schedule: Q04DX003 (ip), vehicle: saline sonified”, the T/C is 86 % of control.

With `O=C1CC(c2c[nH]c3nccnc23)NN1` (stereo unspecified), the T/C was 100 % of control (dose: 12.5 mg/kg/injection, schedule: Q01DX009 (ip), vehicle: water); 101 % of control (dose: 25.0 mg/kg/injection, schedule: Q01DX009 (ip), vehicle: water); 104 % of control (dose: 25.0 mg/kg/injection, schedule: Q04DX003 (ip), vehicle: water); 110 % of control (dose: 50.0 mg/kg/injection, schedule: Q01DX009 (ip), vehicle: water); 100 % of control (dose: 50.0 mg/kg/injection, schedule: Q04DX003 (ip), vehicle: water); 100 % of control (dose: 100.0 mg/kg/injection, schedule: Q01DX009 (ip), vehicle: water). Further, the T/C was 95 % of control (dose: 100.0 mg/kg/injection, schedule: Q04DX003 (ip), vehicle: water); 103 % of control (dose: 200.0 mg/kg/injection, schedule: Q01DX009 (ip), vehicle: water); 104 % of control (dose: 200.0 mg/kg/injection, schedule: Q04DX003 (ip), vehicle: water); 103 % of control (dose: 300.0 mg/kg/injection, schedule: Q01DX009 (ip), vehicle: water); 100 % of control (dose: 400.0 mg/kg/injection, schedule: Q04DX003 (ip), vehicle: water).

On to `CN(C)C1CCCCC1`, for which the T/C (dose: 25.0 mg/kg/injection, schedule: Q04DX003 (ip), vehicle: Klucel (hydroxypropylcellulose) (HPC)) is 91 % of control and the T/C (dose: 50.0 mg/kg/injection, schedule: Q04DX003 (ip), vehicle: Klucel (hydroxypropylcellulose) (HPC)) was 95 % of control.

Turning to `CC(=O)Nc1cc(C(=O)O)cc(C(F)(F)F)c1`, the T/C reads like this: under setting [1], 115 % of control; under setting [2], 105 % of control; (dose: 400.0 mg/kg/injection, schedule: Q04DX003 (ip), vehicle: saline with Tween-80) 95 % of control.

In the case of `COc1ccc(C2=NNC(=O)OC2c2ccccc2)cc1` (stereo unspecified), the T/C runs as follows: (dose: 25.0 mg/kg/injection, schedule: Q01DX009 (ip), vehicle: saline with Tween-80) 92 % of control and 102 % of control; under setting [3], 91 % of control and 96 % of control and 99 % of control; under setting [4], 100 % of control and 110 % of control; under setting [5], 91 % of control and 102 % of control and 105 % of control.

With `OC1CCCCC2CC12` (stereo unspecified), the T/C runs as follows: under setting [3], 101 % of control; under setting [4], 101 % of control; under setting [5], 102 % of control.

Turning to `O=C1c2ccccc2C(=O)N1CC(O)CCl` (stereo unspecified), the T/C is, setting by setting: under setting [3], 104 % of control; under setting [6], 100 % of control; under setting [4], 112 % of control; under setting [1], 104 % of control; under setting [5], 88 % of control; under setting [2], 108 % of control.

With `OCC1(c2ccccc2)CCN(Cc2ccccc2)CC1`, the T/C was 107 % of control under setting [7]; 107 % of control under setting [8]; 87 % of control (dose: 100.0 mg/kg/injection, schedule: Q01DX009 (ip), vehicle: Klucel (hydroxypropylcellulose) (HPC)); 91 % of control (dose: 100.0 mg/kg/injection, schedule: Q04DX003 (ip), vehicle: Klucel (hydroxypropylcellulose) (HPC)); 87 % of control (dose: 200.0 mg/kg/injection, schedule: Q04DX003 (ip), vehicle: Klucel (hydroxypropylcellulose) (HPC)).

On to `C=CCNC(=O)NCC=C`, for which the T/C (dose: 100.0 mg/kg/injection, schedule: Q01DX010 (ip), vehicle: saline) is 161 % of control.

Regarding `CCCCOc1cc(C(=O)O)ccc1[N+](=O)[O-]`, the T/C was 100 % of control (dose: 25.0 mg/kg/injection, schedule: Q04DX003 (ip), vehicle: saline with Tween-80); 100 % of control under setting [6]; 104 % of control under setting [1].

For the compound `CC(C)CCCC(C)C1CCC2C3CC=C4CC(O)CCC4(C)C3CCC12C` (stereo unspecified) (tested in a mixture with another compound), the T/C reads like this: (dose: 25.0 mg/kg/injection, schedule: Q04DX003 (ip), vehicle: alcohol) 90 % of control; (dose: 50.0 mg/kg/injection, schedule: Q04DX003 (ip), vehicle: alcohol) 100 % of control; (dose: 56.25 mg/kg/injection, schedule: Q01DX009 (ip), vehicle: Klucel (hydroxypropylcellulose) (HPC)) 95 % of control; (dose: 100.0 mg/kg/injection, schedule: Q04DX003 (ip), vehicle: alcohol) 105 % of control; (dose: 112.5 mg/kg/injection, schedule: Q01DX009 (ip), vehicle: Klucel (hydroxypropylcellulose) (HPC)) 100 % of control; (dose: 150.0 mg/kg/injection, schedule: Q04DX003 (ip), vehicle: Klucel (hydroxypropylcellulose) (HPC)) 100 % of control. Moreover, the T/C (dose: 225.0 mg/kg/injection, schedule: Q01DX009 (ip), vehicle: Klucel (hydroxypropylcellulose) (HPC)) is 104 % of control and the T/C (dose: 225.0 mg/kg/injection, schedule: Q04DX003 (ip), vehicle: Klucel (hydroxypropylcellulose) (HPC)) was 104 % of control.

In the case of `O=C(Cl)C1C2CC1C(Cl)C2Cl` (stereo unspecified), the T/C is 103 % of control under setting [3], 108 % of control under setting [4] and 107 % of control under setting [5].

As for `O=C(Nc1cccc(Cl)c1)C1CCCC1=Nc1cccc(Cl)c1` (stereo unspecified), the T/C is, setting by setting: under setting [3], 100 % of control; under setting [4], 106 % of control.

In the case of `C[n+]1ccc(NC(=O)c2ccc(NC(=O)c3cccc(C(=O)Nc4ccc(C(=O)Nc5cc[n+](C)cc5)cc4)c3)cc2)cc1`, the T/C reads like this: (dose: 66.0 mg/kg/injection, schedule: Q04DX003 (ip), vehicle: saline with Tween-80) 160 % of control; under setting [1], 239 % of control.

On to `O.O.O=c1[nH]cc(CO)c(=O)[nH]1.[NH2-].[NH2-].[Pt+2]`, for which the T/C was 99 % of control (dose: 3.12 mg/kg/injection, schedule: Q01DX009 (ip), vehicle: Klucel (hydroxypropylcellulose) (HPC)); 88 % of control (dose: 6.25 mg/kg/injection, schedule: Q01DX009 (ip), vehicle: Klucel (hydroxypropylcellulose) (HPC)); 209 % of control (dose: 12.5 mg/kg/injection, schedule: Q01DX009 (ip), vehicle: Klucel (hydroxypropylcellulose) (HPC)); 248 % of control and 211 % of control under setting [7]; 90 % of control under setting [8].

For `COc1ccc(NC(=O)C(C)C(C)=O)cc1` (stereo unspecified), the T/C is, setting by setting: (dose: 12.5 mg/kg/injection, schedule: Q01DX009 (ip), vehicle: saline) 91 % of control; (dose: 25.0 mg/kg/injection, schedule: Q01DX009 (ip), vehicle: saline) 94 % of control; (dose: 25.0 mg/kg/injection, schedule: Q04DX003 (ip), vehicle: saline) 102 % of control; (dose: 50.0 mg/kg/injection, schedule: Q01DX009 (ip), vehicle: saline) 98 % of control; (dose: 50.0 mg/kg/injection, schedule: Q04DX003 (ip), vehicle: saline) 93 % of control; (dose: 100.0 mg/kg/injection, schedule: Q01DX009 (ip), vehicle: saline) 116 % of control. The T/C is 100 % of control (dose: 100.0 mg/kg/injection, schedule: Q04DX003 (ip), vehicle: saline); 100 % of control (dose: 200.0 mg/kg/injection, schedule: Q01DX009 (ip), vehicle: saline); 109 % of control (dose: 200.0 mg/kg/injection, schedule: Q04DX003 (ip), vehicle: saline); 108 % of control (dose: 400.0 mg/kg/injection, schedule: Q01DX009 (ip), vehicle: saline); 111 % of control (dose: 400.0 mg/kg/injection, schedule: Q04DX003 (ip), vehicle: saline).
